34 compounds from patent publication US12220421B2, “Inhibitors of C. difficile spore germination” (THE BOARDS OF REGENTS OF THE NEVADA SYSTEM OF HIGHER …, priority 2021, dated 2025) can be followed below.

SMILES strings stand for the structures. Where two headings read alike, the source gives them in different places.

For the test, the system named is C. difficile R20291 spores. The experiment in a line: C. difficile spore germination assay (optical density, OD580). Particulars: for % Germination: compound 125 uM; for activity at 125 µM / IC50: Clostridioides difficile, R20291SPORES.
Where [1] appears, read: Table 4, 6 mM taurocholate, 12 mM glycine, ± standard deviation.
Setting [2] is: read-out: % Germination, Table 3, compound 125 μM, 6 mM taurocholate, 12 mM glycine, ± standard deviation.
[3] abbreviates: read-out: % Germination, Table 2, compound 125 μM, 6 mM taurocholate, 12 mM glycine, ± standard deviation.
Where [4] appears, read: Table 2, 6 mM taurocholate, 12 mM glycine.
Where [5] appears, read: read-out: % Germination (125 μM), Table 5, compound 125 μM, 6 mM taurocholate, 12 mM glycine, 100% indicates no inhibition.
Where [6] appears, read: Table 3, 6 mM taurocholate, 12 mM glycine.
[7] abbreviates: Table 4, 6 mM taurocholate, 12 mM glycine.
Where [8] appears, read: Table 5, 6 mM taurocholate, 12 mM glycine.

As a reminder, the IC50 is the concentration that inhibits the measured activity by half.

Regarding `COc1ccccc1NC(=O)CC[C@@H](C)[C@H]1CC[C@H]2[C@@H]3CC[C@@H]4C[C@H](O)CC[C@]4(C)[C@H]3CC[C@]12C` [Compound 62], the “% Germination (125 μM)” value (Table 5, compound 125 μM, 6 mM taurocholate, 12 mM glycine, 100% indicates no inhibition) amounted to 100%.

For the compound `C[C@H](CCc1nc2ccccc2o1)[C@H]1CC[C@H]2[C@@H]3[C@H](O)C[C@@H]4C[C@H](O)CC[C@]4(C)[C@H]3C[C@H](O)[C@]12C` [Compound 52], under setting [1], the “% Germination” value was 83 ± 8%. On to `C[C@H](CCc1nc(-c2ccccc2)c2ccccc2n1)[C@H]1CC[C@H]2[C@@H]3[C@H](O)C[C@@H]4C[C@H](O)CC[C@]4(C)[C@H]3C[C@H](O)[C@]12C` [Compound 31], for which the activity at 125 µM under setting [2] was determined as 92 ± 4%. As for `C[C@H](CCc1ncc2cc(Cl)ccc2n1)[C@H]1CC[C@H]2[C@@H]3[C@H](O)C[C@@H]4C[C@H](O)CC[C@]4(C)[C@H]3C[C@H](O)[C@]12C` [Compound 34], the activity at 125 µM under setting [2] came to 59 ± 0.2%. Regarding `C[C@H](CCC(=O)N1CCc2cc(Br)ccc21)[C@H]1CC[C@H]2[C@@H]3[C@H](O)C[C@@H]4C[C@H](O)CC[C@]4(C)[C@H]3C[C@H](O)[C@]12C` [Compound 6], the activity at 125 µM under setting [3] came out at 90 ± 3%. Where the note is “read-out: IC50 against the R20291 strain, R20291 strain”, the IC50 came to 0.4 µM. As for `C[C@H](CCC(=O)N(C)c1ccccc1)[C@H]1CC[C@H]2[C@@H]3[C@H](O)C[C@@H]4C[C@H](O)CC[C@]4(C)[C@H]3C[C@H](O)[C@]12C` [Compound 14], under setting [4], the IC50 amounted to 32 ± 5 µM. For the same compound, the activity at 125 µM under setting [3] was 31 ± 2%. As for `C[C@H](CCC(=O)N1CCc2cc(Cl)ccc21)[C@H]1CC[C@H]2[C@@H]3[C@H](O)C[C@@H]4C[C@H](O)CC[C@]4(C)[C@H]3C[C@H](O)[C@]12C` [Compound 5], under setting [3], the activity at 125 µM stood at 70 ± 3%. On to `Cc1ccc2c(c1)CCN2C(=O)CC[C@@H](C)[C@H]1CC[C@H]2[C@@H]3[C@H](O)C[C@@H]4C[C@H](O)CC[C@]4(C)[C@H]3C[C@H](O)[C@]12C` [Compound 3], for which the activity at 125 µM under setting [3] worked out at 100%. Take `C[C@H](CCc1ncc2c(F)cccc2n1)[C@H]1CC[C@H]2[C@@H]3[C@H](O)C[C@@H]4C[C@H](O)CC[C@]4(C)[C@H]3C[C@H](O)[C@]12C` [Compound 32]: the activity at 125 µM under setting [2] was 36 ± 6%.

Consider `C[C@H](CCc1ncc2ccc(Cl)cc2n1)[C@H]1CC[C@H]2[C@@H]3[C@H](O)C[C@@H]4C[C@H](O)CC[C@]4(C)[C@H]3C[C@H](O)[C@]12C` [Compound 36], for which, under setting [2], the activity at 125 µM was 89 ± 10%. In the case of `C[C@H](CCC(=O)Nc1cccc(F)c1)[C@H]1CC[C@H]2[C@@H]3CC[C@@H]4C[C@H](O)CC[C@]4(C)[C@H]3C[C@H](O)[C@]12C` [Compound 59], the activity at 125 µM under setting [5] was 59 ± 5%. `C[C@H](CCc1ncc2cc(F)ccc2n1)[C@H]1CC[C@H]2[C@@H]3[C@H](O)C[C@@H]4C[C@H](O)CC[C@]4(C)[C@H]3C[C@H](O)[C@]12C` [Compound 33] returned an IC50 under setting [6] of 28 ± 4 µM. Further, the activity at 125 µM under setting [2] worked out at 7 ± 3%. Consider `C[C@H](CCC(=O)Nc1cccc(F)c1)[C@H]1CC[C@H]2[C@@H]3[C@@H](O)C[C@]4(C)C[C@H](O)CC[C@]4(C)[C@H]3CC[C@]12C` [Compound 67], for which the activity at 125 µM under setting [5] worked out at 100%. Consider `C[C@H](CCC(=O)N1CCc2c(Cl)cccc21)[C@H]1CC[C@H]2[C@@H]3[C@H](O)C[C@@H]4C[C@H](O)CC[C@]4(C)[C@H]3C[C@H](O)[C@]12C` [Compound 2], for which the activity at 125 µM under setting [3] was 95 ± 8%. Under setting [6], `C[C@H](CCc1ncc2cccc(F)c2n1)[C@H]1CC[C@H]2[C@@H]3[C@H](O)C[C@@H]4C[C@H](O)CC[C@]4(C)[C@H]3C[C@H](O)[C@]12C` [Compound 38] gave a 50% inhibitory concentration (IC50) of 79 ± 23 µM. Moreover, the activity at 125 µM under setting [2] was 7 ± 0.7%.

Turning to `C[C@H](CCc1ncc2ccc(F)cc2n1)[C@H]1CC[C@H]2[C@@H]3[C@H](O)C[C@@H]4C[C@H](O)CC[C@]4(C)[C@H]3C[C@H](O)[C@]12C` [Compound 35], the activity at 125 µM under setting [2] was 57 ± 2%. The compound `C[C@H](CCc1nc2ccccc2c(=O)[nH]1)[C@H]1CC[C@H]2[C@@H]3[C@H](O)C[C@@H]4C[C@H](O)CC[C@]4(C)[C@H]3C[C@H](O)[C@]12C` [Compound 43] returned an IC50 under setting [6] of 20 ± 11 µM. The activity at 125 µM under setting [2] amounted to 32 ± 0.6%. As to `C[C@H](CCC(=O)Nc1cccc(F)c1)[C@H]1CC[C@H]2[C@@H]3[C@H](O)C[C@@H]4C[C@H](O)CC[C@]4(C)[C@H]3CC[C@]12C` [Compound 55], the activity at 125 µM under setting [5] came to 100%.

Compound `C[C@H](CCc1nc2ccccc2s1)[C@H]1CC[C@H]2[C@@H]3[C@H](O)C[C@@H]4C[C@H](O)CC[C@]4(C)[C@H]3C[C@H](O)[C@]12C` [Compound 47] gave an IC50 under setting [7] of 6 ± 4 µM. Besides, the “% Germination” value under setting [1] is given as −6 ± 0.05%. As for `Cc1ccc(F)cc1NC(=O)CC[C@@H](C)[C@H]1CC[C@H]2[C@@H]3[C@H](O)C[C@@H]4C[C@H](O)CC[C@]4(C)[C@H]3CC[C@]12C` [Compound 56], the activity at 125 µM under setting [5] is 66 ± 6%. In turn, `C[C@H](CCC(=O)N1CCCc2ccccc21)[C@H]1CC[C@H]2[C@@H]3[C@H](O)C[C@@H]4C[C@H](O)CC[C@]4(C)[C@H]3C[C@H](O)[C@]12C` [Compound 8] gave an IC50 under setting [4] of 22 ± 3 µM. Further, the activity at 125 µM under setting [3] was found to be 17 ± 3%. For the compound `C[C@H](CCC(=O)Nc1ccccc1)[C@H]1CC[C@H]2[C@@H]3CC[C@@H]4C[C@H](O)CC[C@]4(C)[C@H]3C[C@H](O)[C@]12C` [Compound 57], under setting [8], half-maximal inhibition (IC50) was put at 1.3 ± 0.1 µM. Besides, under setting [5], the activity at 125 µM was 3 ± 0.2%. As to `C[C@H](CCC(=O)Nc1ccccc1)[C@H]1CC[C@H]2[C@@H]3[C@@H](O)C[C@@H]4C[C@H](O)CC[C@]4(C)[C@H]3CC[C@]12C` [Compound 65], the activity at 125 µM under setting [5] came to 57 ± 0.8%.

For `COc1cc2cnc(CC[C@@H](C)[C@H]3CC[C@H]4[C@@H]5[C@H](O)C[C@@H]6C[C@H](O)CC[C@]6(C)[C@H]5C[C@H](O)[C@]34C)nc2cc1OC` [Compound 39], the activity at 125 µM under setting [2] is 78 ± 3%. As to `COc1ccc2c(c1)N(C(=O)CC[C@@H](C)[C@H]1CC[C@H]3[C@@H]4[C@H](O)C[C@@H]5C[C@H](O)CC[C@]5(C)[C@H]4C[C@H](O)[C@]13C)CC2` [Compound 7], the activity at 125 µM under setting [3] amounted to 100%. As for `Cc1ccc(F)cc1NC(=O)CC[C@@H](C)[C@H]1CC[C@H]2[C@@H]3[C@@H](O)C[C@@H]4C[C@H](O)CC[C@]4(C)[C@H]3CC[C@]12C` [Compound 68], under setting [5], the activity at 125 µM is 100%.

With `COc1ccccc1NC(=O)CC[C@@H](C)[C@H]1CC[C@H]2[C@@H]3[C@H](O)C[C@@H]4C[C@H](O)CC[C@]4(C)[C@H]3CC[C@]12C` [Compound 54], 6 ± 1 µM corresponded to half-maximal inhibition under setting [8] (IC50). Under setting [5], the activity at 125 µM stood at 31 ± 2%.

Regarding `C[C@H](CCC(=O)Nc1cccc(F)c1)[C@H]1CC[C@H]2[C@@H]3CC[C@@H]4C[C@H](O)CC[C@]4(C)[C@H]3CC[C@]12C` [Compound 63], the activity at 125 µM under setting [5] was found to be 100%. `Cc1ccc2c(c1)CCCN2C(=O)CC[C@@H](C)[C@H]1CC[C@H]2[C@@H]3[C@H](O)C[C@@H]4C[C@H](O)CC[C@]4(C)[C@H]3C[C@H](O)[C@]12C` [Compound 9]: under setting [3], the activity at 125 µM was 100%. Regarding `C[C@H](CCc1nc2ccccc2o1)[C@H]1CC[C@H]2[C@@H]3[C@H](O)C[C@@H]4C[C@H](O)CC[C@]4(C)[C@H]3C[C@H](O)[C@]12C` [Compound 50], the half-maximal inhibitory concentration (IC50) under setting [7] came out at 6 ± 3 µM. In addition, the “% Germination” value under setting [1] was −4 ± 0.8%.

With `COc1ccc2cnc(CC[C@@H](C)[C@H]3CC[C@H]4[C@@H]5[C@H](O)C[C@@H]6C[C@H](O)CC[C@]6(C)[C@H]5C[C@H](O)[C@]34C)nc2c1` [Compound 37], under setting [2], the activity at 125 µM came out at 61 ± 5%. With `C[C@H](CCC(=O)N1CCc2ccccc2C1)[C@H]1CC[C@H]2[C@@H]3[C@H](O)C[C@@H]4C[C@H](O)CC[C@]4(C)[C@H]3C[C@H](O)[C@]12C` [Compound 11], the activity at 125 µM under setting [3] stood at 78 ± 2%. In the case of `Cc1ccc(F)cc1NC(=O)CC[C@@H](C)[C@H]1CC[C@H]2[C@@H]3CC[C@@H]4C[C@H](O)CC[C@]4(C)[C@H]3CC[C@]12C` [Compound 64], under setting [5], the activity at 125 µM was found to be 100%. As to `Cc1nc(CC[C@@H](C)[C@H]2CC[C@H]3[C@@H]4[C@H](O)C[C@@H]5C[C@H](O)CC[C@]5(C)[C@H]4C[C@H](O)[C@]23C)nc2ccccc12` [Compound 30], the 50% inhibitory concentration (IC50) under setting [6] was 37 ± 4 µM. Moreover, under setting [2], the activity at 125 µM worked out at 35 ± 5%.
